The target of the assay is Recombinant human Mat2a (Homo sapiens (Human), UniProt P31153). As to the kind of experiment: Determination of Mat2A activity (384 well absorbance-based assay, Biomol Green). In kind it is biochemical. The conditions noted are these: 12.5 nM Mat2A, 100 μM ATP and Methionine, 2% DMSO, 120 minutes at RT, absorbance at 635 nm; read-out: MAT2A_LEC IC50 (uM) (Num). Here is the method: Determination of Mat2A Activity
Measurement of Mat2A inhibition is performed in 384 well format absorbance-based assay. Recombinant human Mat2a (12.5 nM) and serial diluted compounds in DMSO (range of concentrations from 10 μM to 508 pM) or controls (DMSO) are incubated for 15 minutes at room temperature (RT) in assay buffer containing 50 mM HEPES pH 7.5, 50 mM KCl, 50 mM MgCl2, 0.01%Tween 20 and 10 mM DTT. The reaction is initiated by the addition of the combined substrates ATP and Methionine, each at a final concentration of 100 μM. Final assay condition are 12.5 nM Mat2A, 100 μM ATP and Methionine Substrates and 2% DMSO. After 120 minutes of incubation at RT, the reaction is stopped by the addition of Biomol Green. The absorbance signal is measured at λ=635 nm with a multiplate reader (BMG Pherastar reader or equivalent) after 30 min of equilibration at RT.

35 molecules from patent US12565497B2 (Hoffmann-La Roche Inc., priority 2020, dated 2026) can be followed below.

Where a name gives a salt, the structure may show the parent alone.

Recombinant human Mat2a, sequence (P31153 whole entry): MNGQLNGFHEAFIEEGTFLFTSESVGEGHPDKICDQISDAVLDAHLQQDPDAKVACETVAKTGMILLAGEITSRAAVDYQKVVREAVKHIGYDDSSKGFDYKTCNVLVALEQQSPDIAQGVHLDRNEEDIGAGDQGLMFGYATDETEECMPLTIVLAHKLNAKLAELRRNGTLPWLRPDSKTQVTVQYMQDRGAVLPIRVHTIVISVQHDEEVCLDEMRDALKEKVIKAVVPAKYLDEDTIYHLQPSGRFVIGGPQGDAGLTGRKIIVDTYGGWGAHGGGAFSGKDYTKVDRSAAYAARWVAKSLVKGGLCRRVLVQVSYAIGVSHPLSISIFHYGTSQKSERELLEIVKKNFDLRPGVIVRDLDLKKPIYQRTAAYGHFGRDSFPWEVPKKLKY

With `Cc1cc(-c2nccc3[nH]nc(C(F)F)c23)ccc1S(C)(=O)=O` [Example 18, 3-(difluoromethyl)-4-(3-methyl-4-methylsulfonylphenyl)-1H-pyraxolo[4,3-c]pyridine], the IC50 came out at 0.095 µM.
As to `Cc1cc(-c2nccc3[nH]nc(C(C)C)c23)ccc1S(C)(=O)=O` [Example 19, 3-isopropyl-4-(3-methyl-4-(methylsulfonyl)phenyl)-1H-pyrazolo[4,3-c]pyridine], the IC50 is 0.042 µM.
The figure for `Cc1cc(-c2nccc3[nH]nc(C4CC4)c23)c(F)cc1S(C)(=O)=O` [Example 21, 3-cyclopropyl-4-(2-fluoro-5-methyl-4-methylsulfonyl-phenyl)-1H-pyrazolo[4,3-c]pyridine] is 0.056 µM.
In the case of `Cc1cc(S(C)(=O)=O)c(C)cc1-c1nccc2[nH]nc(C3CC3)c12` [Example 22, 3-cyclopropyl-4-(2,5-dimethyl-4-methylsulfonyl-phenyl)-1H-pyrazolo[4,3-c]pyridine hydrochloride] it was 0.15 µM.
In the case of `Cc1cc(-c2nccc3[nH]nc(C4CC4)c23)ccc1[S+](C)[O-]` (centres unmarked) [Example 23, 3-cyclopropyl-4-(3-methyl-4-methylsulfmyl-phenyl)-1H-pyrazolo[4,3-c]pyridine hydrochloride] it was 0.083 µM.
On to `COc1ncc2[nH]nc(C3CC3)c2c1-c1ccc(S(C)(=O)=O)c(C)c1` [Example 24, 3-cyclopropyl-5-methoxy-4-(3-methyl-4-(methylsulfonyl)phenyl)-1H-pyrazolo[3,4-c]pyridine], for which the IC50 is under 0.013 µM.
In the case of `Cc1cc(-c2nccc3[nH]nc(OC(F)F)c23)ccc1S(=O)(=O)C(F)F` [Example 25, 3-(difluoromethoxy)-4-[4-(difluoromethylsulfonyl)-3-methyl-phenyl]-1H-pyrazolo[4,3-c]pyridine] it was 0.013 µM.
The figure for `Cc1cc(-c2nccc3[nH]nc(OC(F)F)c23)ccc1S(=O)(=O)C1CC1` [Example 26, 4-(4-cyclopropylsulfonyl-3-methyl-phenyl)-3-(difluoromethoxy)-1H-pyrazolo[4,3-c]pyridine] is under 0.013 µM.
The figure for `CCS(=O)(=O)c1ccc(-c2nccc3[nH]nc(OC(F)F)c23)cc1C` [Example 27, 3-(difluoromethoxy)-4-(4-ethylsulfonyl-3-methyl-phenyl)-1H-pyrazolo[4,3-c]pyridine] is under 0.013 µM.
Regarding `Cc1cc(-c2nccc3[nH]nc(C4COC4)c23)ccc1S(C)(=O)=O` [Example 28, 4-(3-methyl-4-methylsulfonyl-phenyl)-3-(oxetan-3-yl)-1H-pyrazolo[4,3-c]pyridine], the IC50 came to 0.51 µM.
Consider `Cc1cc(-c2nccc3[nH]nc(OC(F)F)c23)ccc1S(=O)(=O)CC1CC1` [Example 29, 4-[4-(cyclopropylmethylsulfonyl)-3-methyl-phenyl]-3-(difluoromethoxy)-1H-pyrazolo[4,3-c]pyridine], for which the IC50 stood at 0.29 µM.
With `CCCS(=O)(=O)c1ccc(-c2nccc3[nH]nc(OC(F)F)c23)cc1C` [Example 30], the IC50 came to 0.057 µM.
Consider `CS(=O)(=O)c1ccc(-c2nccc3[nH]nc(OC(F)F)c23)cc1C(F)F` [Example 31], for which the IC50 came to 0.033 µM.
On to `Cc1cc(-c2nccc3[nH]nc(OC(F)F)c23)ccc1S(=O)(=O)C(C)C` [Example 32], for which the IC50 is under 0.013 µM.
With `CNS(=O)(=O)c1ccc(-c2nccc3[nH]nc(OC(F)F)c23)cc1C` [Example 33, 4-[3-(difluoromethoxy)-1H-pyrazolo[4,3-c]pyridin-4-yl]-N,2-dimethyl-benzenesulfonamide], the IC50 was found to be 0.029 µM.
Consider `Cc1cc(-c2nc(Cl)cc3[nH]nc(C4CC4)c23)ccc1S(C)(=O)=O` [Example 34, 6-chloro-3-cyclopropyl-4-(3-methyl-4-methylsulfonylphenyl)-1H-pyrazolo[4,3-c]pyridine], for which the IC50 was under 0.013 µM.
In the case of `Cc1cc(-c2nccc3[nH]nc(OC(F)F)c23)ccc1S(=O)(=O)C1COC1` [Example 35, 3-(difluoromethoxy)-4-[3-methyl-4-(oxetan-3-ylsulfonyl)phenyl]-1H-pyrazolo[4,3-c]pyridine] it was 0.12 µM.
In the case of `Cc1cc(-c2nccc3[nH]nc(OC(F)F)c23)ccc1S(=O)(=O)CCO` [Example 36, 2-[4-[3-(difluoromethoxy)-1H-pyrazolo[4,3-c]pyridin-4-yl]-2-methyl-phenyl]sulfonylethanol] it was 0.051 µM; in that of `Cc1cc(-c2nccc3[nH]nc(OC(F)F)c23)ccc1S(=O)(=O)C1(C)CC1` [Example 37, 3-(difluoromethoxy)-4-[3-methyl-4-(1-methylcyclopropyl)sulfonyl-phenyl]-1H-pyrazolo[4,3-c]pyridine], 0.1 µM.
With `COCS(=O)(=O)c1ccc(-c2nccc3[nH]nc(OC(F)F)c23)cc1C` [Example 38, 3-(difluoromethoxy)-4-[4-(methoxymethylsulfonyl)-3-methyl-phenyl]-1H-pyrazolo[4,3-c]pyridine], the IC50 was found to be 0.021 µM.
In the case of `COc1ncc2[nH]nc(C(F)(F)F)c2c1-c1ccc(S(C)(=O)=O)c(C)c1` [Example 39, 5-methoxy-4-(3-methyl-4-(methylsulfonyl)phenyl)-3-(trifluoromethyl)-1H-pyrazolo[3,4-c]pyridine] it was under 0.013 µM.
The figure for `Cc1cc(-c2nccc3[nH]cc(C(F)(F)F)c23)ccc1S(C)(=O)=O` [Example 40, 4-(3-methyl-4-(methylsulfonyl)phenyl)-3-(trifluoromethyl)-1H-pyrrolo[3,2-c]pyridine] is 0.029 µM.
Regarding `COCc1ncc2[nH]nc(C3CC3)c2c1-c1ccc(S(C)(=O)=O)c(C)c1` [Example 41, 3-cyclopropyl-5-(methoxymethyl)-4-(3-methyl-4-(methylsulfonyl)phenyl)-1H-pyrazolo[3,4-c]pyridine], the IC50 was 0.14 µM.
`CCS(=O)(=O)c1ccc(-c2c(C#N)ncc3[nH]nc(C4CC4)c23)cc1C` [Example 42, 3-cyclopropyl-4-(4-ethylsulfonyl-3-methyl-phenyl)-1H-pyrazolo[3,4-c]pyridine-5-carbonitrile]: the IC50 is under 0.013 µM.
`Cc1cc(-c2c(C#N)ncc3[nH]nc(C4CC4)c23)ccc1S(=O)(=O)C1CC1` [Example 43, 3-cyclopropvl-4-(4-cyclopropylsulfonyl-3-methyl-phenyl)-1H-pyrazolo[3,4-c]pyridine-5-carbonitrile]: the IC50 was under 0.013 µM.
Take `Cc1cc(-c2c(S(C)(=O)=O)ccc3[nH]nc(C(F)(F)F)c23)ccc1S(C)(=O)=O` [Example 44, 4-(3-methyl-4-(methylsulfonyl)phenyl)-5-(methylsulfonyl)-3-(trifluoromethyl)-1H-indazole]: the IC50 was found to be 0.017 µM.
Consider `Cc1cc(-c2c(C#N)ccc3[nH]cc(C4CC4)c23)ccc1S(C)(=O)=O` [Example 45, 3-cyclopropyl-4-(3-methyl-4-methylsulfonylphenyl)-1H-indole-5-carbonitrile], for which the IC50 came out at 0.02 µM.
In the case of `CNC(=O)c1ncc2[nH]nc(C3CC3)c2c1-c1ccc(S(=O)(=O)C2CC2)c(C)c1` [Example 46, 3-cyclopropyl-4-(4-cyclopropylsulfonyl-3-methyl-phenyl)-N-methyl-1H-pyrazolo[3,4-c]pyridine-5-carboxamide] it was under 0.013 µM; in that of `Cc1cc(-c2c(C#N)ncc3[nH]nc(C4CC4)c23)c(F)cc1S(C)(=O)=O` [Example 47, 3-cyclopropyl-4-(2-fluoro-5-methyl-4-methylsulfonyl-phenyl)-1H-pyrazolo[3,4-c]pyridine-5-carbonitrile], 0.017 µM; in that of `CN(C)S(=O)(=O)c1ccc(-c2nccc3[nH]nc(OC(F)F)c23)cc1C(F)F` [Example 48, 4-[3-(difluoromethoxy)-1H-pyrazolo[4,3-c]pyridin-4-yl]-2-(difluoromethvl)-N,N-dimethyl-benzenesulfonamide], 0.13 µM.
In the case of `Cc1cc(-c2c(C#N)ncc3[nH]nc(C4CC4)c23)ccc1S(=O)(=O)C(F)F` [Example 50, 3-cyclopropyl-4-[4-(difluoromethylsulfonyl)-3-methyl-phenyl]-1H-pyrazolo[3,4-c]pyridine-5-carbonitrile], the IC50 is under 0.013 µM.
In the case of `CNC(=O)c1ncc2[nH]nc(C3CC3)c2c1-c1ccc(S(C)(=O)=O)c(C(F)F)c1` [Example 51, 3-cyclopropyl-4-[3-(difluoromethyl)-4-methylsulfonyl-phenyl]-N-methyl-1H-pyrazolo[3,4-c]pyridine-5-carboxamide] it was under 0.013 µM; in that of `Cc1cc(-c2c(C#N)ncc3[nH]nc(OC(F)F)c23)ccc1S(C)(=O)=O` [Example 52, 3-(difluoromethoxy)-4-(3-methyl-4-methylsulfonyl-phenyl)-1H-pyrazolo[3,4-c]pyridine-5-carbonitrile], under 0.013 µM; in that of `Cc1cc([S+](C)[O-])c(C(F)F)cc1-c1c(C#N)ncc2[nH]nc(OC(F)F)c12` (centres unmarked) [Example 53, 3-(difluoromethoxy)-4-[5-(difluoromethyl)-2-methyl-4-methylsulfinyl-phenyl]-1H-pyrazolo[3,4-c]pyridine-5-carbonitrile], 0.062 µM.
In the case of `COc1ncc2[nH]nc(C(F)(F)F)c2c1-c1ccc(S(C)(=O)=O)c(C(F)F)c1` [Example 54, 4-[3-(difluoromethyl)-4-methylsulfonyl-phenyl]-5-methoxy-3-(trifluoromethyl)-1H-pyrazolo[3,4-c]pyridine] it was 0.015 µM.

Usually IC50 stands for the midpoint of a concentration-inhibition curve.
